Results as given in patent publication US10610520B2, “Heterocyclic compound” (Takeda Pharmaceutical Company Limited, priority 2016, dated 2020).

Biological target: T1, His-hMAGL (recombinant polyhistidine tagged human MAGL protein) (Homo sapiens, UniProt Q99685)
T1 construct: made in house; host or cells: E. coli BL21(DE3)
T1 sequence (Q99685 1-303): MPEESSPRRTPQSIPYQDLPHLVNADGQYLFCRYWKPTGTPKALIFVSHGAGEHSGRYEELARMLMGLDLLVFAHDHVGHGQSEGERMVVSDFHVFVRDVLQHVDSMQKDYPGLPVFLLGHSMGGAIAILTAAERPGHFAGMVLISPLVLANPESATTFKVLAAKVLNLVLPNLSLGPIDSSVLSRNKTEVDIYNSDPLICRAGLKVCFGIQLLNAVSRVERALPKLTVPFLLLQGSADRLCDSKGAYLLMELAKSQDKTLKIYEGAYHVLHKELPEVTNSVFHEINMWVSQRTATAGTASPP
Experiment: Measurement of MAGL inhibitory activity (arachidonic acid production from 2-arachidonylglycerol, RapidFire-mass spectrometry)
Type: biochemical
Conditions: MAGL inhibitory rate, test compound 10 μM, 60 min preincubation, 2-arachidonylglycerol substrate
Procedure, shortened: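 Arachidonic acid formed was quantified by online solid-phase extraction and triple-quadrupole MS in negative SRM mode against a d8 internal standard. Reaction: recombinant His-hMAGL (7.5 ng/mL, pH 7.5 Tris buffer with Triton X-100 and BSA) plus 2-AG (5 μL of 150 μM stock) for 10 min at room temperature, quenched with 2% formic acid. Percent inhibition corrected for enzyme-free background.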

| Compound | inhibition at 10 µM | % inhibition (10 μM) (10 µM) |
| --- | --- | --- |
| O=C1CCC2(CN(C(=O)c3cc4cc(OCc5ccc(Cl)cc5Cl)ccc4s3)C2)N1 [Example 149, 2-((5-((2,4-dichlorobenzyl)oxy)-1-benzothiophen-2-yl)carbonyl)-2,5-diazaspiro[3.4]octan-6-one] | 83% | – |
| O=C1CCC2(CN(C(=O)c3ccc(-c4ccc(Cl)cc4)cc3)C2)N1 [Example 87, 2-((4′-chlorobiphenyl-4-yl)carbonyl)-2,5-diazaspiro[3.4]octan-6-one] | 98% | – |
| O=C1COCC2(CN(C(=O)N3CCC(COc4ccc(F)cc4Cl)CC3)C2)N1 [Example 243, 2-((4-((2-chloro-4-fluorophenoxy)methyl)piperidin-1-yl)carbonyl)-8-oxa-2,5-diazaspiro[3.5]nonan-6-one] | 100% | – |
| Cc1cccc(F)c1-c1ccc2c(Cl)c(C(=O)N3CC4(CCC(=O)N4)C3)sc2c1 [Example 203, 2-((3-chloro-6-(2-fluoro-6-methylphenyl)-1-benzothiophen-2-yl)carbonyl)-2,5-diazaspiro[3.4]octan-6-one] | 101% | – |
| O=C1CCC2(CN(C(=O)c3sc4cc(-c5ccc(F)c(F)c5)ccc4c3Cl)C2)N1 [Example 216, 2-((3-chloro-6-(3,4-difluorophenyl)-1-benzothiophen-2-yl)carbonyl)-2,5-diazaspiro[3.4]octan-6-one] | 100% | – |
| O=C1CCC2(CN(C(=O)N3CCC(Cc4ccc(C(F)(F)F)cc4)CC3)C2)N1 [Example 106, 2-((4-(4-(trifluoromethyl)benzyl)piperidin-1-yl)carbonyl)-2,5-diazaspiro[3.4]octan-6-one] | 101% | – |

The next lines start with the values.

| inhibition at 10 µM | % inhibition (10 μM) (10 µM) | Compound |
| --- | --- | --- |
| 99% | – | O=C1CCC2(CN(C(=O)c3sc4c(C(F)(F)F)cccc4c3Cl)C2)N1 [Example 255, 2-((3-chloro-7-(trifluoromethyl)-1-benzothiophen-2-yl)carbonyl)-2,5-diazaspiro[3.4]octan-6-one] |
| 100% | – | O=C1NC2(CO1)CN(C(=O)c1sc3c(C(F)(F)F)cccc3c1Cl)C2 [Example 257, 2-((3-chloro-7-(trifluoromethyl)-1-benzothiophen-2-yl)carbonyl)-7-oxa-2,5-diazaspiro[3.4]octan-6-one] |
| 100% | – | O=C1NC2(CO1)CN(C(=O)[C@H]1C[C@@H](OCc3ccc(C(F)(F)F)cc3Cl)C1)C2 [Example 352, 2-((cis-3-((2-chloro-4-(trifluoromethyl)benzyl)oxy)cyclobutyl)carbonyl)-7-oxa-2,5-diazaspiro[3.4]octan-6-one] |
| 100% | – | O=C1NC2(CO1)CN(C(=O)c1sc3cc(OC(F)(F)F)cc(F)c3c1Cl)C2 [Example 269, 2-((3-chloro-4-fluoro-6-(trifluoromethoxy)-1-benzothiophen-2-yl)carbonyl)-7-oxa-2,5-diazaspiro[3.4]octan-6-one] |
| – | 101% | O=C1NC2(CCN(C(=O)c3sc4cc(OC(F)(F)F)ccc4c3Cl)C2)CO1 (centres unmarked) [Example 323, 7-((3-chloro-6-(trifluoromethoxy)-1-benzothiophen-2-yl)carbonyl)-3-oxa-1,7-diazaspiro[4.4]nonan-2-one] |
| 100% | – | O=C1NC2(CO1)CN(C(=O)c1sc3cc(F)cc(F)c3c1Cl)C2 [Example 362, 2-((3-chloro-4,6-difluoro-1-benzothiophen-2-yl)carbonyl)-7-oxa-2,5-diazaspiro[3.4]octan-6-one] |
| 97% | – | O=C1CCC2(CN(C(=O)c3sc4cc(OC(F)(F)F)ccc4c3C(F)F)C2)N1 [Example 265, 2-((3-(difluoromethyl)-6-(trifluoromethoxy)-1-benzothiophen-2-yl)carbonyl)-2,5-diazaspiro[3.4]octan-6-one] |
| 99% | – | O=C1CCC2(CN(C(=O)c3sc4ccc(C(F)(F)F)cc4c3Cl)C2)N1 [Example 256, 2-((3-chloro-5-(trifluoromethyl)-1-benzothiophen-2-yl)carbonyl)-2,5-diazaspiro[3.4]octan-6-one] |
